Experimental data from patent publication US12384775B2, “Pyrimid-2-yl-pyrazole compounds as IRAK inhibitors” (Rigel Pharmaceuticals, Inc., priority 2022, dated 2025).

How the values were obtained:
IRAK1 = IRAK1 (Homo sapiens, UniProt P51617); assay: IRAK1 Adapta assay; assay type: biochemical; settings: for IC50: n = 1, read-out: IRAK4 IC50 Adapta (n = 1)
Experimental: • Bar-coded Corning, low volume, white 384-well plate (Corning Cat. #4512) • Test Compounds: The Test Compounds are screened in 1% DMSO (final) in the well. For 10 point titrations, 3-fold serial dilutions 10 μM. • Substrate/Kinase Mixture: The 2×IRAK1/Histone H3 (1-20) peptide mixture is prepared in 50 mM HEPES pH 7.5, 0.01% BRIJ-35, 10 mM MgCl2, 1 mM EGTA. • ATP Solution: All ATP Solutions are diluted to a 4× working concentration in water. • ATP Km apparent is previously determined using a radiometric assay except when no substrate is available in which case an Adapta assay is conducted. • Detection Mix: The Detection Mix is prepared in TR-FRET Dilution Buffer. The Detection mix consists of EDTA (30 mM), Eu-anti-ADP antibody (6 nM) and ADP tracer. The detection mix contains the EC60 concentration of tracer for 5-150 μM ATP. IRAK1 Method • 1. 100 nL—100× Test Compound in 100% DMSO • 2. 2.4 μL—30 mM HEPES • 3. 2.5 μL—4×ATP Solution • 4. 5 μL—2× Substrate/Kinase Mixture
The final 10 μL Kinase Reaction consists of 3.17-42 ng IRAK1 and 100 μM Histone H3 (1-20) peptide in 32.5 mM HEPES pH 7.5, 0.005% BRIJ-35, 5 mM MgCl2, 0.5 mM EGTA. • 5. 30-second plate shake • 6. 1-minute centrifuge at 1000× g • 7. 60-minute Kinase Reaction incubation at room temperature • 8. 5 μL—Detection Mix • 9. 30-second plate shake • 10. 1-minute centrifuge at 1000× g • 11. 60-minute Detection Mix equilibration at room temperature • 12. Read on fluorescence plate reader and analyze the data

[1] = system: TLR7-Induced TNF-α in Human Peripheral Blood Mononuclear Cells (PBMC); assay: TLR7-induced TNF-α in human PBMC (resiquimod); assay type: cell-based; settings: resiquimod 0.1 μg/ml, read-out: Cell Assays IC50, TNFα (PBMC, resiquimod)
Experimental: Human peripheral blood mononuclear cells (PBMC) were seeded at 100,000 cells per well in 100 μL of RPMI with 10% FCS and primed overnight with 8 ng/ml of IFN-β at 37° C., 5% CO2. Compound was serially diluted in DMSO from 2 mM in 3-fold dilutions, and then diluted 1:100 in RPMI 1640 complete media with 10% FBS (2× stock). The PBMCs were pre-incubated with test compound for 1 hour at 37° C., 5% CO2 by adding 100 μL of RPMI media containing 2× concentrated test compound per well (0.5% final DMSO concentration).
The PBMCs were stimulated with resiquimod (10 μL per well of 21× concentrated resiquimod solution in RPMI media to give a final concentration of 0.1 μg/ml) at 37° C., 5% CO2 for an additional 18 hours. 100 μL of supernatant per well was harvested to measure TNF-α. TNF-α was quantitated using DuoSet ELISA Kit per manufacturer's protocol.

IRAK1, sequence (P51617 whole entry): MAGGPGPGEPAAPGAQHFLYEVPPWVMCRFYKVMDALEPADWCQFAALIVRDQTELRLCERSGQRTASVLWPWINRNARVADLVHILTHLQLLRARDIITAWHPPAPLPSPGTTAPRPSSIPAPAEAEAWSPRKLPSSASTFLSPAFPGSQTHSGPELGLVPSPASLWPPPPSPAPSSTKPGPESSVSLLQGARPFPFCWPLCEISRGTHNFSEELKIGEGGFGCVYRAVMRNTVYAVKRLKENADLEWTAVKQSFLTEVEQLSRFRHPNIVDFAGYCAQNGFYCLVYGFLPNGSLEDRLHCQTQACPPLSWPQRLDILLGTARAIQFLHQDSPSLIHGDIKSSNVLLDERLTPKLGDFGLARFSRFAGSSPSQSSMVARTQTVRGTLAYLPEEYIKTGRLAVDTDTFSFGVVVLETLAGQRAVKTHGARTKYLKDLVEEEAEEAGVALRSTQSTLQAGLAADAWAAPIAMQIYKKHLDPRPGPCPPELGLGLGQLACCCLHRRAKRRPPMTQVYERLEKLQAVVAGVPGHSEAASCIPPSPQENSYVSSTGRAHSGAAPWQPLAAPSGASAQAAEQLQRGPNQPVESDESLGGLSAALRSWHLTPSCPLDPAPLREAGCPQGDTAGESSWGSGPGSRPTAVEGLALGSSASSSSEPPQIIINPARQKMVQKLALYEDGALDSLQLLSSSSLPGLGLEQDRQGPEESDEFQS

| SMILES | IC50 (IRAK1) | IC50 [1] | EC50 (IRAK1) |
| --- | --- | --- | --- |
| CCO[C@H]1CC[C@H](n2cc(NC(=O)c3csc(-c4cn[nH]c4)n3)c(-c3nc(F)ccc3F)n2)CC1 [Comparison-1, reference compound] | 14 nM | 15 nM |  |
| CCO[C@H]1CC[C@H](n2cc(NC(=O)c3csc(-c4cn[nH]c4)n3)c(-c3ncccn3)n2)CC1 [Compound I-1, N-(1-((1r,4r)-4-ethoxycyclohexyl)-3-(pyrimidin-2-yl)-1H-pyrazol-4-yl)-2-(1H-pyrazol-4-yl)thiazole-4-carboxamide] | 4 nM | 3 nM | 4 nM |
